# Source: US20020086278A1, “CHROMOGENIC MEDIA CONTAINING BLOOD OR HEMIN” (priority 1999, published 2002)
# Test: Color contrast of chromogen on blood plate
row,Compound,Absorption max (nm)
1,Oc1c[nH]c2ccc(Br)c(Cl)c12 [5-Bromo-4-chloro-3-indoxyl],615
2,Oc1c[nH]c2cc(Cl)ccc12 [6-chloro-3-indoxyl],540
